# From US7754748B2, “Method for treating obesity” (Duke University, priority 2002, dated 2010)
# Columns and labels:
# [1] = Example 2 case: obese person, bupropion then zonisamide added; type: in vivo, human
# Experimental: At this point, zonisamide was added to the regimen at 100 mg/day and the dose was increased after 2 weeks to 200 mg/day. […] No further information is available as the patient has relocated.
# [2] = optional 16-week single-blinded extension phase (to Week 32), zonisamide vs placebo in obese subjects; type: in vivo, human; settings: for mean weight loss at Week 32: placebo 1.82% (0.73%)
# Experimental: (§1) The study had two phases. The first was the acute phase—a 16-week, randomized, double blind, parallel-group comparison of zonisamide (ZON) and placebo (PBO). This was followed by an optional 16-week extension phase. At the end of the acute phase, subjects wishing to continue further received the same treatment for an additional 16 weeks in a single-blinded fashion.
# (§2) During each visit, the following assessments were performed: blood pressure, heart rate, weight, dietary compliance, medication accountability and tolerability, and adverse effects. Body weight was measured on a calibrated electronic scale to the nearest 0.1 kilogram. A registered dietitian reviewed food diaries and assessed dietary compliance. Adverse effects were gathered via spontaneous reporting by subjects as well as open-ended inquiries by the clinicians.
# In addition to the above, the subjects completed the Impact of Weight on Quality of Life (IWQOL) (Kolotin et al, Obesity Res. 3:49-56 (1995)) at baseline, Week 8, and Week 16. The IWQOL is a self-report measure with 74 items that assess the perceived effect of weight on quality of life in the following domains (subscales)—health, social/interpersonal life, work, mobility, self-esteem, sexual life, activities of daily living, and eating (comfort with food). Improvement with treatment is reflected by decreasing scores on all the subscales with the exception of the eating (comfort with food) subscale, which is expected to show less comfort around food with effective treatment. Body composition (fat and lean masses) and bone mineral density (BMD) were determined, at baseline and Week 32, by dual x-ray absorptiometry (DXA; Hologic 2000, Waltham, Mass.). All DXA measurements were gathered using the same equipment and techniques. Subjects were instructed to fast for 8 hours and not to drink water or other beverages for at least 4 hours prior to DXA measurement.
# Weight change during the study was assessed in terms of actual weight change over the six study intervals using multivariable regression methodology, and as a dichotomous outcome of ‘response,’ i.e., 5% weight loss at Week 16, and 5% and 10% weight loss at Week 32. The proxy variables denoting response status were tested across treatment conditions again using Fisher's exact test. Three multivariable regression analyses were conducted. In the first, body weight at each time point was modeled using a random effects growth curve model. Heuristically, the model fits a regression line for each subject using available data points, thus maximizing use of actual data. For the second set of analyses, body weights were regressed as above with missing observations carried forward from the last recorded weight based on an intent-to-treat approach (LOCF). The final model was restricted to the subset of respondents with no missing data (completers).
# Secondary analyses were conducted over three general areas of interest. In each case, analyses were based on 2×2 repeated measures ANOVAs that included time, drug condition, and their interaction (time-by-drug). The primary interest in each instance was to determine if subjects in the zonisamide condition were differentially affected relative to controls as operationally determined by testing the significance of the estimated interaction term. Tests in first area of interest focused on clinical indicators including levels of creatinine, glucose, triglycerides, high and low density lipoproteins (all assessed at baseline and study conclusion), waist measurements (baseline, Week 8 and Week 16), blood pressure (systolic and diastolic), and heart rate. The second general area of sampled quality of life indicators including activities of daily living, appetite, esteem, health, interpersonal relations, mobility, sex, and work using the IWQOL Scale; repeated measurements were taken at baseline, Week 8, and Week 16). The final set of secondary analyses sampled hunger and appetite using the Visual Analogue Scale for Hunger and Food Cravings. […]
# [3] = as above; type: in vivo, human; settings: Week 32, versus placebo; p<0.0030, p<0.0651, p<0.0019, P<0.0005
# [4] = 16-week randomized, double blind acute phase, zonisamide vs placebo in obese subjects; type: in vivo, human
# Source text: Sixty-eight subjects were screened for participation and 60 subjects were randomized.
# Inclusion criteria were: male or female, aged 21-50 years, with body mass index (BMI) of ≧30 kg/m^2.
# as §1
# The subjects were randomized in a 1:1 ratio to receive zonisamide or placebo capsules. Study medication was dispensed under blinded conditions through computer-based randomization. The randomization was generated using a random number table with a block size of ten. There was no stratification by gender or other demographics. The study investigators were blind to the “blocking” method used by the pharmacy. The treatment assignment codes were not available to the investigators until all subjects completed the acute phase, the data were entered, and the database for this phase was locked, meaning that no further changes could be made to the data.
# The study medication was dispensed in the form of capsules. Each capsule contained either 100 milligrams zonisamide or placebo. The capsules were made to look identical. The dose escalation was as follows: one capsule (zonisamide 100 mg or placebo) every evening for the first 2 weeks; two capsules (zonisamide 200 mg or placebo) every evening during Weeks 3 and 4; three capsules (zonisamide 300 mg or placebo) every evening during Weeks 5 and 6; and, four capsules (zonisamide 400 mg or placebo) every evening from Week 7 onward. At Week 12, the dose could be increased further to six capsules (zonisamide 600 mg or placebo) every evening for subjects who had not lost at least 5% of their initial body weight. If a subject preferred not to take all six capsules at one time, taking a half of the daily dose in the morning was an option. Based on tolerability, dose escalation could be withheld, or the dose might also be decreased. Medication compliance was overseen by recording the number of tablets returned and comparing this number to the number of capsules dispensed at each visit.
# Subjects in both treatment groups were instructed to follow an individual diet that was 500 Kcal/day less than what they needed to maintain their weight. The prescribed diet, based on eating a variety of foods from the Food Guide Pyramid, emphasized decreasing portions, eating more fruits and vegetables, and drinking 8 cups of water each day. Increased physical activity was also encouraged for subjects in both groups. Subjects were asked to record their dietary intake including portion sizes in food diaries, which were provided to them. A registered dietician reviewed food diaries and provided counseling to all subjects. Subjects were encouraged to make healthy changes in their diets and physical activity that could be maintained after the completion of the study.
# as §2
# In addition to the above, the subjects completed the Impact of Weight on Quality of Life (IWQOL) (Kolotin et al, Obesity Res. 3:49-56 (1995)) at baseline, Week 8, and Week 16. The IWQOL is a self-report measure with 74 items that assess the perceived effect of weight on quality of life in the following domains (subscales)—health, social/interpersonal life, work, mobility, self-esteem, sexual life, activities of daily living, and eating (comfort with food). […]
# [5] = Example 3 case: obese person, zonisamide then bupropion SR added; type: in vivo, human
# Experimental: An obese person (weight 246 lb, BMI 41.4 kg/m^2) who had not benefited from various treatments, was started on zonisamide 100 mg/day and the dose was increased gradually to 400 mg a day over the next 4 weeks. […] At this point, zonisamide dose was increased to 600 mg a day; the patient achieved an additional weight loss of 0.6 lb in the next month. Thus, after 3 months of zonisamide therapy, the total weight loss with zonisamide therapy was 5.2 lb. […] They reported that they felt “full” after eating small portions of food, and had more energy.
# [6] = Example 4 case: obese person, zonisamide then bupropion added; type: in vivo, human
# Experimental: An obese person received zonisamide in a clinical trial and achieved weight loss of 35.6 lb over 32 weeks. During the 5 weeks following discontinuation of zonisamide, they gained 7.7 lb. Zonisamide was restarted, but this intervention was unsuccessful in offsetting the regained weight; after 16 weeks of therapy at doses up to 400 mg/d, the patient gained 1.2 lb.
# [7] = epileptic patients taking other concomitant AEDs; small percent of patients; cited from earlier work
smiles,measurement,setting,value
CC(NC(C)(C)C)C(=O)c1cccc(Cl)c1 (centres unmarked) [bupropion],net weight loss,[1]; after 2 months on bupropion,1.6 lbs
same,weight lost,"[1]; after one month, bupropion 150 mg twice a day, start weight 271 lb",5 lbs
same,weight regained,[1]; during the second month on bupropion,3.4 lbs
NS(=O)(=O)Cc1noc2ccccc12 [zonisamide],bone mineral density at lumbar vertebrae (L-BMD),"[2]; DXA, baseline vs Week 32",did not change over time
same,total bone mineral density,"[2]; DXA, baseline vs Week 32, both groups, no difference between groups, not clinically significant","small, but statistically significant (p<0.017) increase"
same,mean lipid values,"[2]; either treatment, significant reductions for some subjects",No clinically significant changes
same,serum creatinine after treatment,"[2]; extension phase subjects, baseline 0.78 (0.03) mg/dL, placebo 0.75 to 0.77",0.92 (0.03) mg/dL
same,estimated rate of occurrence of kidney stones,[2]; for the duration of treatment in this study (approximately 8 months),62.5 per 1000 patient-years of exposure
same,absolute weight at Week 32,"[2]; from 96.88 (3.01) kg, placebo 96.39 to 94.85 kg",87.64 (2.95) kg
same,subjects who lost >=10% weight at Week 32,"[2]; none of the placebo subjects, p<0.0004",Ten of 19
same,heart rate,[2]; over 32 weeks,no significant change
same,mean weight loss at Week 32,[2],9.4%
same,mean weight loss at Week 32,[2]; listed as Zonisamide,9.37%
same,"Impact of Weight on Quality of Life (IWQOL): Health, Work, Mobility, Activities of Daily Living",[3],improved more significantly
same,heart rate change versus placebo,"[4]; 16 weeks, overall sample decreased approximately 2 beats/min",no difference between the groups
same,absolute weight at Week 16,"[4]; ITT-LOCF, baseline 98.17 (2.5) kg, placebo 97.75 to 96.86 kg",92.28 (2.47) kg
same,subjects achieving >=10% weight loss at Week 16,"[4]; ITT-LOCF, placebo 0/30, p<0.0053",7/30
same,subjects achieving >=5% weight loss at Week 16 (number),"[4]; ITT-LOCF, placebo 3 of 30, p<0.0003",17 of 30
same,subjects achieving >=5% weight loss at Week 16 (percent),"[4]; ITT-LOCF, placebo 10%",57%
same,predicted weight loss per week (drug-by-time interaction regression coefficient),[4]; LOCF intent-to-treat imputation,0.29 kg/wk
same,mean (SE) estimated weight loss,"[4]; Week 16, ITT analysis with LOCF, n=30, placebo 1.02% (0.40%), p<0.0001",5.98%
same,serum creatinine after treatment,"[4]; acute phase, baseline 0.79 (0.03) mg/dL, placebo 0.76 to 0.79",0.92 (0.03) mg/dL
same,systolic and diastolic blood pressure readings,[4]; by four months,did not change
same,"weight loss, subjects completing the 16-week acute phase","[4]; completers, Week 16, placebo 1.30% (0.49%)",6.61%
same,predicted weight loss per week (drug-by-time interaction regression coefficient),"[4]; likelihood imputed model, versus placebo",> 0.3 kg
same,predicted weight loss per week (drug-by-time interaction regression coefficient),[4]; model based only on complete-data subjects,0.21 kg/wk
same,increase in serum creatinine,"[4]; no further increase in the extension phase, no value exceeded upper limit of normal",approximately 16%
same,subjects reporting fatigue,"[4]; of 30, placebo 1, p<0.006",10 subjects
same,"adverse effects (AEs) reported per subject, average","[4]; over the study period, placebo 1.6, p<0.125",2.1
same,tolerability,[4]; whole study,generally well tolerated
same,total weight loss,[5]; after 3 months of zonisamide therapy,5.2 lb
same,weight lost,"[5]; after one month, zonisamide up to 400 mg a day, start weight 246 lb",4.6 lbs
same,additional weight loss,"[5]; in the next month, zonisamide 600 mg a day",0.6 lb
same,weight change during the second month,[5]; zonisamide 400 mg a day,no further weight loss
same,weight gained on restarted therapy,[6]; after 16 weeks of restarted zonisamide at doses up to 400 mg/d,1.2 lb
same,weight gained following discontinuation,[6]; during the 5 weeks following discontinuation of zonisamide,7.7 lb
same,weight loss,"[6]; over 32 weeks, zonisamide in a clinical trial",35.6 lb
same,weight loss observed as an adverse effect,[7],a small degree of weight loss
